Key:
[1] = test system: universal monoclonal antibody against type I pyrethroid (hybridoma cell line QW8#); test: conventional indirect competitive ELISA; type: binding, mouse
Description: To screen the target positive hybridoma cell line that is a highly specific and sensitive cell line against pyrethroid containing a diphenyl ether structure (by screening with etofenprox standard), the traditional two-step screening method was modified in this experiment. A gradient screening method was used in the indirect competitive ELISA screening process. (1) In the first step, an indirect non-competitive ELISA was used to screen the positive wells that recognized the diphenyl ether structure, but not the carrier protein (BSA). […] The positive wells with relatively small B/B0 were selected, where B is the absorbance in the control well […] etofenprox standard, and B0 is the absorbance in the wells with etofenprox standard. The cells were cloned by limiting dilution, and detected about 10 days after the cloning by using the same two-step method as described above. […]
The affinity for QW8# was determined by indirect non-competitive ELISA. […] The OD450 values measured was used as the vertical coordinates, the values of the logarithm of the antibody concentrations (mol/L) were used as the horizontal coordinates, 4 S-shaped curves corresponding to the 4 concentrations were plotted. […]

Hapten-1-BSA = test: affinity constant (Ka) of the antibody by indirect non-competitive ELISA; type: binding; details: antibody derived from mouse ascetic fluid; plate coated with Hapten-1-BSA at 2.0, 1.0, 0.5, 0.25 μg/mL
Description: The affinity for QW8# was determined by indirect non-competitive ELISA. The plate was coated at 37° C. for 2 hours with Hapten-1-BSA at concentrations of 2.0, 1.0, 0.5, and 0.25 μg/mL in an amount of 100 μL/well. After the plate was blocked with a blocking solution for 1 hour, the antibody diluted with PBS (at a dilution factor of 1:2) was added to the plate and the rest steps were the same as those in indirect non-competitive ELISA. The OD450 values measured was used as the vertical coordinates, the values of the logarithm of the antibody concentrations (mol/L) were used as the horizontal coordinates, 4 S-shaped curves corresponding to the 4 concentrations were plotted. The maximum OD value (ODmax) at the top of each S-curve, that is, the concentration of the antibody that corresponds to 50% of the ODmax, was obtained from each curve. The 4 concentrations were paired, and the affinity constant (Ka) of the antibody was calculated by using the formula Ka=(n−1)/2(n[Ab′]t−[Ab]t), where [Ab′]t, and [Ab]t are antibody concentrations corresponding to 50% of two ODmax values in each group, and n is the multiple of the antigen concentration coated in each group.

| Molecule | IC50 value of the universal monoclonal antibody [1] [µg/mL] | affinity (affinity constant Ka) of the antibody (Hapten-1-BSA) [L/mol] |
| --- | --- | --- |
| CCOc1ccc(C(C)(C)COCc2cccc(Oc3ccccc3)c2)cc1 [etofenprox] | 0.02086 |  |
| CC1(C)C(C=C(Cl)Cl)C1C(=O)OCc1cccc(Oc2ccccc2)c1 (stereo not drawn) [permethrin] | 0.0242 |  |
| QW8#: universal monoclonal antibody against type I pyrethroid secreted by hybridoma cell line QW8# (CCTCC C2016164), subtype IgG2a (antibody, V domains shown) VH: QVTLKESGPGILQPSQTLSLTCSFSGFSLSTYGIGIGWIRQSSGRGLEWLAHIWWNDNRYYNIALKSRLTISKDASNNQFFLKLASVDTADIATYYCVRGYGRPFYAMDYWGQGTTVTVSS VL: QAVVTQESALTTSPGETVTLTCRSSTGAVTTSNYVNWVQEKPDHLFTGLIGGTNNRGPGVPARFSGSLIGDKAALTITGTQTEDEAIYFCALWYSNHWVFGGGTKLTVL |  | 2.16e+08 |

From US10809252B2, “Time-resolved fluorescent immunochromatographic assay rapid test kit for type I pyrethroid” (priority 2017, dated 2020)
